This is an account of results in patent US10450316B2, “Certain protein kinase inhibitor” (Chongqing Fochon Pharmaceutical Co., Ltd., priority 2015, dated 2019).

Where only a bound is given, the exact number is not on record here.

A word on the IC50: it is the concentration that inhibits the measured activity by half. A higher IC50 goes with weaker potency.

This experiment deals with BE(2)-C cell. Briefly: Cell proliferation assay (MTS) in BE(2)-C cells. Format: cell-based. The note with it: Homo sapiens, inhibition of BE(2)-C cell proliferation, 48 h. As to the method:
MTS testing kit was purchased from Promega. The DMEM, Fetal bovine serum and Penicillin-Streptomycin were purchased from Gibco. Dimethyl sulfoxide (DMSO) was purchased from Sigma.
To investigate whether a compound is able to inhibit the activity of CDK4/6 in cells, mechanism-based assays using BE(2)-C cell (ATCC® number:CRL-2268) were developed. In the assay, inhibition of CDK4/6 was detected by the inhibition of BE(2)-C cell cells proliferation. BE(2)-C cell cells were cultured in culture flasks to 40-80% confluence in DMEM plus 10% fetal bovine serum. Cells were collected and plated onto 96-well plates at cell density of 3000 cells/well. Plates were incubated overnight at 37° C., with 5% CO2 to adhere. Compounds were added to the plates, the final compound concentrations were 10000, 3333, 1111, […], 123.5, 41.2, 13.7, 4.6 and 1.5 nM. Place plates at 37° C., with 5% CO2 for 48 h. After removing the medium, 20 μl MTS/100 μl medium mixture solution were added to each well and incubate the plates for exactly 2 hours. The reaction was terminated by adding 25 μl 10% SDS per well. Measure absorbance at 490 nm and 650 nm (reference wavelength). IC50 was calculated using GraphPad Prism 5.0.
Select compounds prepared as described above were assayed according to the biological procedures described herein. “++++” stands for IC50 value below about 10 nM. “+++” stands for IC50 value between greater than about 10 nM to about 100 nM. “++” stands for IC50 value between greater than about 100 nM to about […]. “+” stands for IC50 value greater than 1 μM.
The molecule `CN1CC2(C1)CN(Cc1ccc(Nc3ncc(F)c(-c4cc(F)c5nc6n(c5c4)[C@H](CF)CC6)n3)nc1)C2` [Example 24, (S)-5-fluoro-4-(5-fluoro-1-(fluoromethyl)-2,3-dihydro-1H-benzo[d]pyrrolo[1,2-a]imidazol-7-yl)-N-(5-((6-methyl-2,6-diazaspiro[3.3]heptan-2-yl)methyl)pyridin-2-yl)pyrimidin-2-amine] gave an IC50 above 100 nM.

`CCN1CC2(C1)CN(Cc1ccc(Nc3ncc(F)c(-c4cc(F)c5nc6n(c5c4)[C@H](CF)CC6)n3)nc1)C2` [Example 25, (S)-N-(5-((6-ethyl-2,6-diazaspiro[3.3]heptan-2-yl)methyl)pyridin-2-yl)-5-fluoro-4-(5-fluoro-1-(fluoromethyl)-2,3-dihydro-1H-benzo[d]pyrrolo[1,2-a]imidazol-7-yl)pyrimidin-2-amine] gave an IC50 of 10 to 100 nM. `FC[C@@H]1CCc2nc3c(F)cc(-c4nc(Nc5ccc(CN6CC7CNCC7C6)cn5)ncc4F)cc3n21` (stereo partly drawn) [Example 26, 5-fluoro-4-((S)-5-fluoro-1-(fluoromethyl)-2,3-dihydro-1H-benzo[d]pyrrolo[1,2-a]imidazol-7-yl)-N-(5-((hexahydropyrrolo[3,4-c]pyrrol-2(1H)-yl)methyl)pyridin-2-yl)pyrimidin-2-amine] registered an IC50 above 100 nM. Turning to `CN1CC2CN(Cc3ccc(Nc4ncc(F)c(-c5cc(F)c6nc7n(c6c5)[C@H](CF)CC7)n4)nc3)CC2C1` (stereo partly drawn) [Example 27, 5-fluoro-4-((S)-5-fluoro-1-(fluoromethyl)-2,3-dihydro-1H-benzo[d]pyrrolo[1,2-a]imidazol-7-yl)-N-(5-((5-methylhexahydropyrrolo[3,4-c]pyrrol-2(1H)-yl)methyl)pyridin-2-yl)pyrimidin-2-amine], the IC50 fell in the range of 10 to 100 nM. Regarding `CCN1CC2CN(Cc3ccc(Nc4ncc(F)c(-c5cc(F)c6nc7n(c6c5)[C@H](CF)CC7)n4)nc3)CC2C1` (stereo partly drawn) [Example 28, N-(5-((5-ethylhexahydropyrrolo[3,4-c]pyrrol-2(1H)-yl)methyl)pyridin-2-yl)-5-fluoro-4-((S)-5-fluoro-1-(fluoromethyl)-2,3-dihydro-1H-benzo[d]pyrrolo[1,2-a]imidazol-7-yl)pyrimidin-2-amine], the IC50 was 10 to 100 nM. Consider `FC[C@@H]1CCc2nc3c(F)cc(-c4nc(Nc5ccc(CN6CCC7(CCNCC7)CC6)cn5)ncc4F)cc3n21` [Example 29, (S)-N-(5-((3,9-diazaspiro[5.5]undecan-3-yl)methyl)pyridin-2-yl)-5-fluoro-4-(5-fluoro-1-(fluoromethyl)-2,3-dihydro-1H-benzo[d]pyrrolo[1,2-a]imidazol-7-yl)pyrimidin-2-amine], for which the IC50 was above 100 nM.

In turn, `CN1CCC2(CC1)CCN(Cc1ccc(Nc3ncc(F)c(-c4cc(F)c5nc6n(c5c4)[C@H](CF)CC6)n3)nc1)CC2` [Example 30, (S)-5-fluoro-4-(5-fluoro-1-(fluoromethyl)-2,3-dihydro-1H-benzo[d]pyrrolo[1,2-a]imidazol-7-yl)-N-(5-((9-methyl-3,9-diazaspiro[5.5]undecan-3-yl)methyl)pyridin-2-yl)pyrimidin-2-amine] registered an IC50 above 100 nM. On to `CCN1CCC2(CC1)CCN(Cc1ccc(Nc3ncc(F)c(-c4cc(F)c5nc6n(c5c4)[C@H](CF)CC6)n3)nc1)CC2` [Example 31, (S)-N-(5-((9-ethyl-3,9-diazaspiro[5.5]undecan-3-yl)methyl)pyridin-2-yl)-5-fluoro-4-(5-fluoro-1-(fluoromethyl)-2,3-dihydro-1H-benzo[d]pyrrolo[1,2-a]imidazol-7-yl)pyrimidin-2-amine], for which the IC50 is above 100 nM. Consider `FC[C@@H]1CCc2nc3c(F)cc(-c4nc(Nc5ccc(CN6C7CCC6CNC7)cn5)ncc4F)cc3n21` [Example 32, N-(5-((3,8-diazabicyclo[3.2.1]octan-8-yl)methyl)pyridin-2-yl)-5-fluoro-4-((S)-5-fluoro-1-(fluoro-methyl)-2,3-dihydro-1H-benzo[d]pyrrolo[1,2-a]imidazol-7-yl)pyrimidin-2-amine], for which the IC50 is above 100 nM. `CN1CC2CCC(C1)N2Cc1ccc(Nc2ncc(F)c(-c3cc(F)c4nc5n(c4c3)[C@H](CF)CC5)n2)nc1` [Example 33, 5-fluoro-4-((S)-5-fluoro-1-(fluoromethyl)-2,3-dihydro-1H-benzo[d]pyrrolo[1,2-a]imidazol-7-yl)-N-(5-((3-methyl-3,8-diazabicyclo[3.2.1]octan-8-yl)methyl)pyridin-2-yl)pyrimidin-2-amine] yielded an IC50 of 10 to 100 nM. In the case of `CCN1CC2CCC(C1)N2Cc1ccc(Nc2ncc(F)c(-c3cc(F)c4nc5n(c4c3)[C@H](CF)CC5)n2)nc1` [Example 34, N-(5-((3-ethyl-3,8-diazabicyclo[3.2.1]octan-8-yl)methyl)pyridin-2-yl)-5-fluoro-4-((S)-5-fluoro-1-(fluoromethyl)-2,3-dihydro-1H-benzo[d]pyrrolo[1,2-a]imidazol-7-yl)pyrimidin-2-amine], the IC50 fell in the range of 10 to 100 nM. With `FC[C@@H]1CCc2nc3c(F)cc(-c4nc(Nc5ccc(CN6CC7CCC(C6)N7)cn5)ncc4F)cc3n21` [Example 35, N-(5-((3,8-diazabicyclo[3.2.1]octan-3-yl)methyl)pyridin-2-yl)-5-fluoro-4-((5)-5-fluoro-1-(fluoro-methyl)-2,3-dihydro-1H-benzo[d]pyrrolo[1,2-a]imidazol-7-yl)pyrimidin-2-amine] the figure was above 100 nM; with `CN1C2CCC1CN(Cc1ccc(Nc3ncc(F)c(-c4cc(F)c5nc6n(c5c4)[C@H](CF)CC6)n3)nc1)C2` [Example 36, 5-fluoro-4-((5)-5-fluoro-1-(fluoromethyl)-2,3-dihydro-1H-benzo[d]pyrrolo[1,2-a]imidazol-7-yl)-N-(5-((8-methyl-3,8-diazabicyclo[3.2.1]octan-3-yl)methyl)pyridin-2-yl)pyrimidin-2-amine], above 100 nM; with `CCN1C2CCC1CN(Cc1ccc(Nc3ncc(F)c(-c4cc(F)c5nc6n(c5c4)[C@H](CF)CC6)n3)nc1)C2` [Example 37, N-(5-((8-ethyl-3,8-diazabicyclo[3.2.1]octan-3-yl)methyl)pyridin-2-yl)-5-fluoro-4-((S)-5-fluoro-1-(fluoromethyl)-2,3-dihydro-1H-benzo[d]pyrrolo[1,2-a]imidazol-7-yl)pyrimidin-2-amine], 10 to 100 nM. `Fc1cnc(Nc2ccc(N3CCNCC3)cn2)nc1-c1cc(F)c2nc3n(c2c1)[C@H](C(F)F)CC3` [Example 38, (S)-4-(1-(difluoromethyl)-5-fluoro-2,3-dihydro-1H-benzo[d]pyrrolo[1,2-a]imidazol-7-yl)-5-fluoro-N-(5-(piperazin-1-yl)pyridin-2-yl)pyrimidin-2-amine] had an IC50 above 100 nM.

With `CCN1CCN(c2ccc(Nc3ncc(F)c(-c4cc(F)c5nc6n(c5c4)[C@H](C(F)F)CC6)n3)nc2)CC1` [Example 40, (S)-4-(1-(difluoromethyl)-5-fluoro-2,3-dihydro-1H-benzo[d]pyrrolo[1,2-a]imidazol-7-yl)-N-(5-(4-ethylpiperazin-1-yl)pyridin-2-yl)-5-fluoropyrimidin-2-amine], the IC50 was above 1000 nM. For `Fc1cnc(Nc2ccc(CN3CCN4CCC[C@@H]4C3)cn2)nc1-c1cc(F)c2nc3n(c2c1)[C@H](C(F)F)CC3` [Example 41, 4-((S)-1-(difluoromethyl)-5-fluoro-2,3-dihydro-1H-benzo[d]pyrrolo[1,2-a]imidazol-7-yl)-5-fluoro-N-(5-(((R)-hexahydropyrrolo[1,2-a]pyrazin-2(1H)-yl)methyl)pyridin-2-yl)pyrimidin-2-amine], the IC50 lay in the range of 10 to 100 nM. For the molecule `Fc1cnc(Nc2ccc(CN3CC4(CCNCC4)C3)cn2)nc1-c1cc(F)c2nc3n(c2c1)[C@H](C(F)F)CC3` [Example 42, (S)-N-(5-((2,7-diazaspiro[3.5]nonan-2-yl)methyl)pyridin-2-yl)-4-(1-(difluoromethyl)-5-fluoro-2,3-dihydro-1H-benzo[d]pyrrolo[1,2-a]imidazol-7-yl)-5-fluoropyrimidin-2-amine], the IC50 was above 100 nM. Regarding `CN1CCC2(CC1)CN(Cc1ccc(Nc3ncc(F)c(-c4cc(F)c5nc6n(c5c4)[C@H](C(F)F)CC6)n3)nc1)C2` [Example 43, (S)-4-(1-(difluoromethyl)-5-fluoro-2,3-dihydro-1H-benzo[d]pyrrolo[1,2-a]imidazol-7-yl)-5-fluoro-N-(5-((7-methyl-2,7-diazaspiro[3.5]nonan-2-yl)methyl)pyridin-2-yl)pyrimidin-2-amine], the IC50 lay in the range of 10 to 100 nM. Regarding `CCN1CCC2(CC1)CN(Cc1ccc(Nc3ncc(F)c(-c4cc(F)c5nc6n(c5c4)[C@H](C(F)F)CC6)n3)nc1)C2` [Example 44, (S)-4-(1-(difluoromethyl)-5-fluoro-2,3-dihydro-1H-benzo[d]pyrrolo[1,2-a]imidazol-7-yl)-N-(5-((7-ethyl-2,7-diazaspiro[3.5]nonan-2-yl)methyl)pyridin-2-yl)-5-fluoropyrimidin-2-amine], the IC50 was 10 to 100 nM. `Fc1cnc(Nc2ccc(CN3CC4(CNC4)C3)cn2)nc1-c1cc(F)c2nc3n(c2c1)[C@H](C(F)F)CC3` [Example 45, (S)-N-(5-((2,6-diazaspiro[3.3]heptan-2-yl)methyl)pyridin-2-yl)-4-(1-(difluoromethyl)-5-fluoro-2,3-dihydro-1H-benzo[d]pyrrolo[1,2-a]imidazol-7-yl)-5-fluoropyrimidin-2-amine] gave an IC50 above 1000 nM.
